Experimental data taken from ChEMBL document CHEMBL4507273 (2021).

What was measured:
[1] = target: Phosphatidylinositol 3-kinase C2 domain-containing subunit gamma (Homo sapiens) (UniProt O75747); details: Compound concentration 1000.0 nM
[2] = target: Calcium/calmodulin-dependent protein kinase type 1G (Homo sapiens) (UniProt Q96NX5); details: Compound concentration 1000.0 nM
[3] = target: Platelet-derived growth factor receptor alpha (Homo sapiens) (UniProt P16234); details: Compound concentration 1000.0 nM
[4] = target: Dual specificity mitogen-activated protein kinase kinase 5 (Homo sapiens) (UniProt Q13163); details: Compound concentration 1000.0 nM
[5] = target: Calcium/calmodulin-dependent protein kinase type 1D (Homo sapiens) (UniProt Q8IU85); details: Compound concentration 1000.0 nM
Sequence of Calcium/calmodulin-dependent protein kinase type 1D (Homo sapiens) (Q8IU85 whole entry, looked up): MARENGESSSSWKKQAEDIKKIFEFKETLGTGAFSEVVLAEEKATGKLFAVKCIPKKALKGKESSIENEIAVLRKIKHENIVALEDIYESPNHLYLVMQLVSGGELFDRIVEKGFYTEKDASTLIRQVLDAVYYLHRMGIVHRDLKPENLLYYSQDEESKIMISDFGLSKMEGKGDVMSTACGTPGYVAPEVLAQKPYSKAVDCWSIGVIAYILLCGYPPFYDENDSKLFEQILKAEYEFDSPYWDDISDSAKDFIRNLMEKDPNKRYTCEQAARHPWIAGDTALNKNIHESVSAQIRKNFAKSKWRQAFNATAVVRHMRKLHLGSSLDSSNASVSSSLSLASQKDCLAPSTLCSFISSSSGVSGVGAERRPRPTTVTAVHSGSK

[6] = tested on: ALK tyrosine kinase receptor (Homo sapiens), Q9UM73 [L1196M]; details: Compound concentration 1000.0 nM
[7] = target: Cyclin-dependent kinase 5 (Homo sapiens) (UniProt Q00535); details: Compound concentration 1000.0 nM
Sequence of Cyclin-dependent kinase 5 (Homo sapiens) (Q00535 whole entry, looked up): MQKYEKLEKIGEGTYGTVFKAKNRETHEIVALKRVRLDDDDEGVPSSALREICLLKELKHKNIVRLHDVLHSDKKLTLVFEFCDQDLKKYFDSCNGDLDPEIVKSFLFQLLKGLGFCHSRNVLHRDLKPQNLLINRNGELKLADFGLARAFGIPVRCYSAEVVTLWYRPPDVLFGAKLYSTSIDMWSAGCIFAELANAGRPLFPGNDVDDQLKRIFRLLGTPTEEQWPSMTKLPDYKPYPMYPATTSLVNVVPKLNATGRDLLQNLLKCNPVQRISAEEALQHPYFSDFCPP

[8] = target: Mitogen-activated protein kinase kinase kinase 19 (Homo sapiens) (UniProt Q56UN5); details: Compound concentration 1000.0 nM
[9] = tested on: Tyrosine-protein kinase ABL1 (Homo sapiens), P00519 [E255K]; details: Compound concentration 1000.0 nM
[10] = target: Calcium/calmodulin-dependent protein kinase type II subunit beta (Homo sapiens) (UniProt Q13554); details: Compound concentration 1000.0 nM
[11] = target: Serine/threonine-protein kinase SBK1 (Homo sapiens) (UniProt Q52WX2); details: Compound concentration 1000.0 nM
[12] = target: Rhodopsin kinase GRK7 (Homo sapiens) (UniProt Q8WTQ7); details: Compound concentration 1000.0 nM
[13] = target: Serine/threonine-protein kinase MRCK beta (Homo sapiens) (UniProt Q9Y5S2); details: Compound concentration 1000.0 nM
[14] = target: Mitogen-activated protein kinase 13 (Homo sapiens) (UniProt O15264); details: Compound concentration 1000.0 nM
Sequence of Mitogen-activated protein kinase 13 (Homo sapiens) (O15264 whole entry): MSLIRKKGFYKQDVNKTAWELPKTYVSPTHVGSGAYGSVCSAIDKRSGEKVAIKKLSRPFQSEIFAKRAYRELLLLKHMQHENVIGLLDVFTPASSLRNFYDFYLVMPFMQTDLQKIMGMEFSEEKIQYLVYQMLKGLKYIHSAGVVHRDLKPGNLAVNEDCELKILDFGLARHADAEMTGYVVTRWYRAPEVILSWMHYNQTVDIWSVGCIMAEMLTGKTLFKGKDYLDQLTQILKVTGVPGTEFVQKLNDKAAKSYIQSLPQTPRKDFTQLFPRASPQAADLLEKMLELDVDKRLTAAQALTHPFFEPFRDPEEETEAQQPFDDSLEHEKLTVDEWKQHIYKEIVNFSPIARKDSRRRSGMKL

[15] = target: Serine/threonine-protein kinase/endoribonuclease IRE1 (Homo sapiens) (UniProt O75460); details: Compound concentration 1000.0 nM
[16] = target: MAP kinase-interacting serine/threonine-protein kinase 1 (Homo sapiens) (UniProt Q9BUB5); details: Compound concentration 1000.0 nM
[17] = target: Ribosomal protein S6 kinase alpha-4 (Homo sapiens) (UniProt O75676); details: Compound concentration 1000.0 nM
[18] = target: Serine/threonine-protein kinase PknB (Mycobacterium tuberculosis) (UniProt P9WI81); details: Compound concentration 1000.0 nM
[19] = target: Cyclin-dependent kinase 11B (Homo sapiens) (UniProt P21127); details: Compound concentration 1000.0 nM
[20] = target: Ephrin type-B receptor 4 (Homo sapiens) (UniProt P54760); details: Compound concentration 1000.0 nM
[21] = target: Serine/threonine-protein kinase BRSK2 (Homo sapiens) (UniProt Q8IWQ3); details: Compound concentration 1000.0 nM
[22] = target: Mitogen-activated protein kinase kinase kinase 7 (Homo sapiens) (UniProt O43318); details: Compound concentration 1000.0 nM
[23] = tested on: Tyrosine-protein kinase ABL1 (Homo sapiens), P00519 [Q252H]; details: Compound concentration 1000.0 nM
[24] = target: Tyrosine-protein kinase Yes (Homo sapiens) (UniProt P07947); details: Compound concentration 1000.0 nM
[25] = target: Muscarinic acetylcholine receptor M4 (Homo sapiens) (UniProt P08173); details: Compound concentration 10.0 uM
[26] = target: Serine/threonine-protein kinase PAK 6 (Homo sapiens) (UniProt Q9NQU5); details: Compound concentration 1000.0 nM
Sequence of Serine/threonine-protein kinase PAK 6 (Homo sapiens) (Q9NQU5 whole entry, looked up): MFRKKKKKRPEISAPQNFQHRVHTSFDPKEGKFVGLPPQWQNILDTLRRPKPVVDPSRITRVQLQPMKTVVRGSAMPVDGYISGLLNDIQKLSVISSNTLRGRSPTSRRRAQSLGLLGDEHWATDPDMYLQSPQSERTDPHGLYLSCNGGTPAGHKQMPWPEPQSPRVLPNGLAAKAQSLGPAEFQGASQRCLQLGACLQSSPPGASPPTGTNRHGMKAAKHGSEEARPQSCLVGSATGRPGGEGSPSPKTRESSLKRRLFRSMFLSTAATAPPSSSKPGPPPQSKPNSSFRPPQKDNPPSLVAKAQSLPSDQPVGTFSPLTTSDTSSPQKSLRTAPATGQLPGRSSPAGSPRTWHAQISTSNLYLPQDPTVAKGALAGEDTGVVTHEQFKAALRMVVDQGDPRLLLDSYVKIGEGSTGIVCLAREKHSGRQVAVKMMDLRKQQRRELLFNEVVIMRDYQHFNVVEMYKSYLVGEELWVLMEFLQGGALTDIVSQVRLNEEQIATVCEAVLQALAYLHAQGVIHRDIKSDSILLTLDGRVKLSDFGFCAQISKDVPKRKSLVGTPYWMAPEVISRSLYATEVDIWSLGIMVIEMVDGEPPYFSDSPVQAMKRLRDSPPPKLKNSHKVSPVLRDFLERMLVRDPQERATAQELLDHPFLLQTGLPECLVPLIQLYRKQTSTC

[27] = tested on: Receptor-type tyrosine-protein kinase FLT3 (Homo sapiens), P36888 [D835V]; details: Compound concentration 1000.0 nM
[28] = target: T1, Alpha-2C adrenergic receptor (Homo sapiens, UniProt P18825); experiment: GPCRScan assay: inhibition of Alpha2C; design: radioligand conc. used [nm] 0.5 – 1.0, parental cells stable MDCK
T1 sequence (P18825 whole entry): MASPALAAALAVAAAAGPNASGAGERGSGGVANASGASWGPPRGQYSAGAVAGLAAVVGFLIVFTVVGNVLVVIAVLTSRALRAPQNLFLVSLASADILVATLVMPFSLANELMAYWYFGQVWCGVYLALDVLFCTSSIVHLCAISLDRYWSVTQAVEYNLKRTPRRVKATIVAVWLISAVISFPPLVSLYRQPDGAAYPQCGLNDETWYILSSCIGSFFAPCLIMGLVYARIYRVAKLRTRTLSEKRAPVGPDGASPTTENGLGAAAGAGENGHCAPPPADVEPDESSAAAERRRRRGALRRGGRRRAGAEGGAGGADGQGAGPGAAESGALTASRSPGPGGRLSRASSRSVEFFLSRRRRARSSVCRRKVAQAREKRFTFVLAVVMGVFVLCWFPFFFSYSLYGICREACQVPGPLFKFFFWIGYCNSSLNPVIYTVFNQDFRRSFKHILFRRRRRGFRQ

[29] = target: Cyclin-G-associated kinase (Homo sapiens) (UniProt O14976); details: Compound concentration 1000.0 nM
[30] = tested on: Epidermal growth factor receptor (Homo sapiens), P00533 [UNDEFINED MUTATION]; details: Compound concentration 1000.0 nM
[31] = target: Serine/threonine-protein kinase 24 (Homo sapiens) (UniProt Q9Y6E0); details: Compound concentration 1000.0 nM
[32] = target: Activin receptor type-2B (Homo sapiens) (UniProt Q13705); details: Compound concentration 1000.0 nM
Sequence of Activin receptor type-2B (Homo sapiens) (Q13705 whole entry): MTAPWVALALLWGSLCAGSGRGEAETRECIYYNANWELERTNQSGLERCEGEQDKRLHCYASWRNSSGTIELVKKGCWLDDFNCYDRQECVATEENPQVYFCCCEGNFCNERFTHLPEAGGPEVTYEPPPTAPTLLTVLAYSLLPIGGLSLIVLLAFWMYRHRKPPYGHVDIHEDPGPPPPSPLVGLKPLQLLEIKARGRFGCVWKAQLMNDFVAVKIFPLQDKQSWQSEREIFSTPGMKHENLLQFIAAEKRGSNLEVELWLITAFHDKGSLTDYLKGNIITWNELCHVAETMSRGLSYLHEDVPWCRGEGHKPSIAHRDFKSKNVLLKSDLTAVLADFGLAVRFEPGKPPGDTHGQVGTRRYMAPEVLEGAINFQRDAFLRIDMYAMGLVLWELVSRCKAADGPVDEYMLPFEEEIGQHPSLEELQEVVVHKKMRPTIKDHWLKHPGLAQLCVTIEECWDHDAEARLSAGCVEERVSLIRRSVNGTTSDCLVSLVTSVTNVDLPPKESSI

[33] = target: NUAK family SNF1-like kinase 2 (Homo sapiens) (UniProt Q9H093); details: Compound concentration 1000.0 nM
Sequence of NUAK family SNF1-like kinase 2 (Homo sapiens) (Q9H093 whole entry): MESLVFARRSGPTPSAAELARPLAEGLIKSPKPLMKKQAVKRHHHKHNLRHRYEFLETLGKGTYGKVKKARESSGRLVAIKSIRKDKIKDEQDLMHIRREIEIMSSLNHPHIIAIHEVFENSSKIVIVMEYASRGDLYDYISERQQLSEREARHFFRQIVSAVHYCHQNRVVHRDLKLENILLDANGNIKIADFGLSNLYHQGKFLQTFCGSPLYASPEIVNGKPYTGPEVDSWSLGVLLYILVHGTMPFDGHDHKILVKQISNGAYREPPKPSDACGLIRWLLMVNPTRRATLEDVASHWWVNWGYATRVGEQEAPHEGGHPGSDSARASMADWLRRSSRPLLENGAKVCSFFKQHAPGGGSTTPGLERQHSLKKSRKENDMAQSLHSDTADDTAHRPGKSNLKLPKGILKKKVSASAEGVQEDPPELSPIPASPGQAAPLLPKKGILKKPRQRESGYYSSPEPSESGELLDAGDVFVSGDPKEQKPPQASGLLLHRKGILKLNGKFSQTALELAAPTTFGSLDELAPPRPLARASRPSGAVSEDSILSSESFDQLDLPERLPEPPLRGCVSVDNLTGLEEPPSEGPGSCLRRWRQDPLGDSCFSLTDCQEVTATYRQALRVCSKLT

[34] = target: Calcium/calmodulin-dependent protein kinase kinase 2 (Homo sapiens) (UniProt Q96RR4); details: Compound concentration 1000.0 nM
Sequence of Calcium/calmodulin-dependent protein kinase kinase 2 (Homo sapiens) (Q96RR4 2-588 limits assumed): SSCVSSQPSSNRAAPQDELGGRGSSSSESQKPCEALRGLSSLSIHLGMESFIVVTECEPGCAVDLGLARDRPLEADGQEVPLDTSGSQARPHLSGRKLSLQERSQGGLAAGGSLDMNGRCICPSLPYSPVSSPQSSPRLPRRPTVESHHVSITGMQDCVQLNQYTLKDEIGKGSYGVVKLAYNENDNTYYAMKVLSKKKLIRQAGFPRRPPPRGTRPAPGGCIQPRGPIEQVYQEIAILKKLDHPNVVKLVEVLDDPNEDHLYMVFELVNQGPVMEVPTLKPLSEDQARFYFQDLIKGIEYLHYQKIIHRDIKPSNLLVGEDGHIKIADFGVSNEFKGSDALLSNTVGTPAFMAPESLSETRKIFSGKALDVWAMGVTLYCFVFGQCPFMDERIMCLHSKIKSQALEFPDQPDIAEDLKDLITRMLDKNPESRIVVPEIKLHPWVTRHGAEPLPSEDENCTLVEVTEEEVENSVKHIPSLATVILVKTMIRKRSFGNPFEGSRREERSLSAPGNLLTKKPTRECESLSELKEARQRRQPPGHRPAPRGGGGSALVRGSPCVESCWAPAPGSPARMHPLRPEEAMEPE

[35] = target: LIM domain kinase 1 (Homo sapiens) (UniProt P53667); details: Compound concentration 1000.0 nM
[36] = target: Calcium/calmodulin-dependent protein kinase type II subunit delta (Homo sapiens) (UniProt Q13557); details: Compound concentration 1000.0 nM
Sequence of Calcium/calmodulin-dependent protein kinase type II subunit delta (Homo sapiens) (Q13557 whole entry): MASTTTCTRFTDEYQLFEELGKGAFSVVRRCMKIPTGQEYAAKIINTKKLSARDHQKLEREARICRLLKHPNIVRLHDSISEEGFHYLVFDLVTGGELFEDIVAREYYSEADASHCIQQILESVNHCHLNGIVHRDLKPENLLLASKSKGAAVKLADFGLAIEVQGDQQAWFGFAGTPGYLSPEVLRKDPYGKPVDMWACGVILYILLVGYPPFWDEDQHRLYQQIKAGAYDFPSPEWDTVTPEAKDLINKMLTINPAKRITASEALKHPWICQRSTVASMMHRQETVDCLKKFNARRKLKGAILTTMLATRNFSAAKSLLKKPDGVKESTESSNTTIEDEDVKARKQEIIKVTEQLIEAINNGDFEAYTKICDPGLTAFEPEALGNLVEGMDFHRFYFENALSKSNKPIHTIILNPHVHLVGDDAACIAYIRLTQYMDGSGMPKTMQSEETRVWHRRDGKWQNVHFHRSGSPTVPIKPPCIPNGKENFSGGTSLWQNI

[37] = target: Serine/threonine-protein kinase Sgk3 (Homo sapiens) (UniProt Q96BR1); details: Compound concentration 1000.0 nM
Sequence of Serine/threonine-protein kinase Sgk3 (Homo sapiens) (Q96BR1 whole entry): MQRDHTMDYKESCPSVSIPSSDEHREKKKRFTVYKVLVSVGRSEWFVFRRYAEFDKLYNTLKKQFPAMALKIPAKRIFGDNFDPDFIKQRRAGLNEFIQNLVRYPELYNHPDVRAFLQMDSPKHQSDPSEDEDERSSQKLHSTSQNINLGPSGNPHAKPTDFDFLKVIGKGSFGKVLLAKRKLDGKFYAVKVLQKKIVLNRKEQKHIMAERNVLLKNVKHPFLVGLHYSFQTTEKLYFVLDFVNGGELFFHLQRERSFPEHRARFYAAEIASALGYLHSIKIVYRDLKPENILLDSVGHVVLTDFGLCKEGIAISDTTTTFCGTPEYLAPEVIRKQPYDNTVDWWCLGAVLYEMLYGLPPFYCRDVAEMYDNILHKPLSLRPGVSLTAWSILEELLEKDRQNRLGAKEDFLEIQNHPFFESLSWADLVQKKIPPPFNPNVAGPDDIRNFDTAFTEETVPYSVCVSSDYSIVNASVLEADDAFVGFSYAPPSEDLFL

[38] = target: Serine/threonine-protein kinase pim-2 (Homo sapiens) (UniProt Q9P1W9); details: Compound concentration 1000.0 nM

Sequence of Calcium/calmodulin-dependent protein kinase type 1G (Homo sapiens) (Q96NX5 whole entry): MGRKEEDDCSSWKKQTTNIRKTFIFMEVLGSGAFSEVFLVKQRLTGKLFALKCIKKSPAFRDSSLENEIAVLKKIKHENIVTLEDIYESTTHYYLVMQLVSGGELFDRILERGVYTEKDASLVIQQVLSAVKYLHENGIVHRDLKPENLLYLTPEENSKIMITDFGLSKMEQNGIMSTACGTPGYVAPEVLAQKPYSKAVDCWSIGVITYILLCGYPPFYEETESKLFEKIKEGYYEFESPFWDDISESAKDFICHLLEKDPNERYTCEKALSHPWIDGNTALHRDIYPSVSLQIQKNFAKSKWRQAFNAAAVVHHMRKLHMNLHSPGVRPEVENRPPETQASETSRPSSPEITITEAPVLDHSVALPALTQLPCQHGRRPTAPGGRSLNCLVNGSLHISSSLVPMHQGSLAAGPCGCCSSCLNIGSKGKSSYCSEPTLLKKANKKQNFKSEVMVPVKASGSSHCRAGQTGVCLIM

`CNCc1ccccc1-c1csc([C@H](C)Nc2nc(C)nc3cc(OC)c(OC)cc23)c1` [BAY-294] gave a residual activity [1] of 100%, a residual activity [2] of 96% and a residual activity [3] of 92%. It also gave a residual activity [4] of 87%, a residual activity [5] of 100% and a residual activity [6] of 93%. For the same molecule, the residual activity [7] was 98%, the residual activity [8] was 78% and the residual activity [9] was 81%. The residual activity [10] was 100%, the residual activity [11] was 100% and the residual activity [12] was 89%. The residual activity [13] was 100%, the residual activity [14] was 100% and the residual activity [15] was 100%. It also gave a residual activity [16] of 91%, a residual activity [17] of 100% and a residual activity [18] of 90%. The residual activity [19] was 100%, the residual activity [20] was 100% and the residual activity [21] was 100%. For the same molecule, the residual activity [22] was 75%, the residual activity [23] was 76% and the residual activity [24] was 100%. It also gave an inhibition [25] of 59.4%, a residual activity [26] of 100% and a residual activity [27] of 88%. For the same molecule, the Ki ([28]; read-out: Ki) was 95.2 nM, the Ki ([28]; read-out: pKi (converted)) was 91.2 nM and the residual activity [29] was 90%. For the same molecule, the residual activity [30] was 64%, the residual activity [31] was 100% and the residual activity [32] was 100%. For the same molecule, the residual activity [33] was 100%, the residual activity [34] was 82% and the residual activity [35] was 100%. The residual activity [36] was 97%, the residual activity [37] was 93% and the residual activity [38] was 100%.
Molecule `CNCc1ccccc1-c1csc([C@@H](C)Nc2nc(C)nc3cc(OC)c(OC)cc23)c1` [BAY-293] has a residual activity [1] of 59%, a residual activity [2] of 93% and a residual activity [3] of 84%. The residual activity [4] was 91%, the residual activity [5] was 100% and the residual activity [6] was 100%. The residual activity [7] was 78%, the residual activity [8] was 71% and the residual activity [9] was 75%. For the same molecule, the residual activity [10] was 92%, the residual activity [11] was 100% and the residual activity [12] was 83%. For the same molecule, the residual activity [13] was 89%, the residual activity [14] was 100% and the residual activity [15] was 100%. For the same molecule, the residual activity [16] was 83%, the residual activity [17] was 100% and the residual activity [18] was 76%. For the same molecule, the residual activity [19] was 100%, the residual activity [20] was 99% and the residual activity [21] was 100%. It also gave a residual activity [22] of 70%, a residual activity [23] of 69% and a residual activity [24] of 100%. The inhibition [25] was 43.1%, the residual activity [26] was 100% and the residual activity [27] was 70%. The Ki ([28]; read-out: Ki) was 131 nM, the Ki ([28]; read-out: pKi (converted)) was 130 nM and the residual activity [29] was 88%. For the same molecule, the residual activity [30] was 50%, the residual activity [31] was 100% and the residual activity [32] was 100%. The residual activity [33] was 97%, the residual activity [34] was 100% and the residual activity [35] was 99%. It also gave a residual activity [36] of 99%, a residual activity [37] of 78% and a residual activity [38] of 100%.
